In EPA's ToxValDB 9.5 (doi:10.2903/j.efsa.2013.3182):
In brackets after ≈: the same amount, converted by molar mass.

Tests used:
[1] = test system: Anas platyrhynchos
[2] = test system: Apis mellifera; conditions: acute, duration: 48 hours, mortality
[3] = test system: Bibionidae; conditions: chronic/long-term; duration: 28 days
[4] = test system: Canidae; conditions: oral, Dog Other, organ weight
[5] = test system: Colinus virginianus; conditions: acute, oral, mortality
[6] = test system: Daphnia magna; conditions: chronic/long-term; duration: 21 days; reproduction
[7] = test system: Oncorhynchus mykiss; conditions: acute; duration: 96 hours; mortality
[8] = test system: Pimephales promelas; conditions: chronic/long-term; duration: 40 days; time to hatch
[9] = test system: Rattus norvegicus; conditions: acute; oral; mortality
[10] = test system: Tagia sp.; conditions: acute; duration: 14 days; mortality
[11] = test system: Aphidius rhopalosiphi; experiment: LR50; higher = less toxic; conditions: chronic/long-term; duration: 7 days; mortality
[12] = test system: Typhlodromus pyri; experiment: LR50; higher = less toxic; conditions: chronic/long-term; duration: 7 days; mortality

Which results are given for `COc1cc(OC)n2nc(NS(=O)(=O)c3c(C(F)(F)F)ccnc3OC)nc2n1` [Pyroxsulam]?
LD50 ([1]; acute, oral, unspecified, mortality): > 2000 mg/kg-day; NOAEL ([1]; reproductive): 46.3 mg/kg-day; LD50 ([2]; dermal): > 100 µg/piece; LD50 ([2]; oral, unspecified): > 107 µg/piece; NOEC [3]: 100 mg/L; NOAEL ([4]; chronic, duration: 1 years): 89 mg/kg-day; NOAEL ([4]; subchronic, duration: 90 days): 100 mg/kg-day; LC50 ([5]; diet): > 988 mg/kg-day; LD50 [5]: > 2000 mg/kg-day; NOEC [6]: 10.4 mg/L; LC50 [7]: 5.9 µg/mL (≈ 13.6 µM); NOEC [8]: 10.1 mg/L; LD50 [9]: > 2000 mg/kg-day; LC50 [10]: > 10000 mg/kg; LR50 [11]: > 37.5 g/ha; LR50 [12]: > 37.5 g/ha
